Experimental data published in patent US5120751A, “Benzoylphenyl pyridinylthiazolidine compounds as platelet activating antagonists” (Abbott Laboratories, priority 1991, dated 1992).
Structures can show the parent of a compound that is named as a salt.

Biological target: PAF receptor (Oryctolagus cuniculus, UniProt G1TEI7)
Assay: PAF receptor binding assay: inhibition of specific [3H]C18-PAF binding to rabbit platelet membranes
Settings: 0.6 nM [3H]C18-PAF, 60 minutes at 22-23 °C, pH 7.0, Ki calculated from IC50 (Cheng and Prusoff)

Chain of PAF receptor (G1TEI7 1-342): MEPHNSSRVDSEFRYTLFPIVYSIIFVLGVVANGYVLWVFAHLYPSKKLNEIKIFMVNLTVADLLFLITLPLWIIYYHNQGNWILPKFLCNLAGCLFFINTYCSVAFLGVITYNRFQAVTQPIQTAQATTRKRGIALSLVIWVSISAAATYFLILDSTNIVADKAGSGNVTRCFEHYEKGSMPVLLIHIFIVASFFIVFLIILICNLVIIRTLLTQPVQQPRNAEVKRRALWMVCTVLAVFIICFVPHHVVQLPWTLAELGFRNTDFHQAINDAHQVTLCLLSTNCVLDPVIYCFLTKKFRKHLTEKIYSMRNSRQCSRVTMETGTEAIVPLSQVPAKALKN

SMILES: O=C(c1ccccc1)c1cccc(NC(=O)C2CSC(c3cccnc3)N2)c1 (stereo not drawn) [Example 1, N-(3-benzoylphenyl) 2-(3-pyridinyl)-4-thiazolidine carboxamide]
- Ki: 5 nM

SMILES: CC(C)(C)OC(=O)N1C(C(=O)Nc2cccc(C(=O)c3ccccc3)c2)CSC1c1cccnc1 (stereo not drawn) [Example 2, N-(3-benzoylphenyl) 2-(3-pyridinyl)-3-tert-butoxycarbonyl-4-thiazolidinecarboxamide]
- Ki: 100000 nM

SMILES: COc1cc(C(=O)c2cccc(NC(=O)C3CSC(c4cccnc4)N3)c2)cc(OC)c1OC (stereo not drawn) [Example 4, N-[3-(3,4,5-trimethoxybenzoyl)phenyl] 2-(3-pyridinyl)-4-thiazolidinecarboxamide dihydrochloride]
- Ki: 1 nM

SMILES: COc1ccc(C(=O)c2cccc(NC(=O)C3CSC(c4cccnc4)N3)c2)cc1 (stereo not drawn) [Example 5, N-[3-(4-methoxybenzoyl)phenyl] 2-(3-pyridinyl)-4-thiazolidinecarboxamide dihydrochloride]
- Ki: 34 nM

SMILES: O=C(c1cccc(NC(=O)C2CSC(c3cccnc3)N2)c1)c1ccc2c(c1)OCO2 (stereo not drawn) [Example 6, N-[3-(3,4-methylenedioxybenzoyl)phenyl] 2-(3-pyridinyl)-4-thiazolidinecarboxamide dihydrochloride]
- Ki: 33 nM

SMILES: COc1cc(OC)cc(C(=O)c2cccc(NC(=O)C3CSC(c4cccnc4)N3)c2)c1 (stereo not drawn) [Example 7, N-[3-(3,5-dimethoxybenzoyl)phenyl] 2-(3-pyridinyl)-4-thiazolidinecarboxamide dihydrochloride]
- Ki: 2 nM

SMILES: COc1ccc(C(=O)c2cccc(NC(=O)C3CSC(c4cccnc4)N3)c2)cc1OC (stereo not drawn) [Example 8, N-[3-(3,4-dimethoxybenzoyl)phenyl] 2-(3-pyridinyl)-4-thiazolidinecarboxamide dihydrochloride]
- Ki: 6 nM

SMILES: O=C(c1ccccc1)c1cccc(NC(=O)C2CSC(c3cccnc3)S2)c1 (stereo not drawn) [Example 9, N-(3-benzoylphenyl) 2-(3-pyridinyl)-4-dithiolanecarboxamide]
- Ki: 23 nM

SMILES: COc1cc(C(=O)c2cccc(NC(=O)C3CSC(c4cccnc4)S3)c2)cc(OC)c1OC (stereo not drawn) [Example 10, N-[3-(3,4,5-trimethoxybenzoyl)phenyl] 2-(3-pyridinyl)-4-dithiolanecarboxamide]
- Ki: 570 nM

SMILES: O=CN1C(C(=O)Nc2cccc(C(=O)c3ccccc3)c2)CSC1c1cccnc1 (stereo not drawn) [Example 11, N-(3-benzoylphenyl) 2-(3-pyridinyl)-3-formyl-4-thiazolidinecarboxamide]
- Ki: 500 nM

SMILES: CNC(=O)N1C(C(=O)Nc2cccc(C(=O)c3ccccc3)c2)CSC1c1cccnc1 (stereo not drawn) [Example 12, N-(3-benzoylphenyl) 2-(3-pyridinyl)-3-(N-methylcarbamoyl)-4-thiazolidinecarboxamide]
- Ki: 700 nM

SMILES: O=C(CC1CSC(c2cccnc2)N1)Nc1cccc(C(=O)c2ccccc2)c1 (stereo not drawn) [Example 13, N-(3-benzoylphenyl) 2-(3-pyridinyl)-thiazolid-4-ylacetamide]
- Ki: 5800 nM

SMILES: NC(=O)N1C(CC(=O)Nc2cccc(C(=O)c3ccccc3)c2)CSC1c1cccnc1 (stereo not drawn) [Example 14, N-(3-benzoylphenyl) 2-(3-pyridinyl)-3-carbamoylthiazolid-4-ylacetamide]
- Ki: 150 nM

SMILES: CN(C(=O)C1CSC(c2cccnc2)N1)c1cccc(C(=O)c2ccccc2)c1 (stereo not drawn) [Example 15, N-(3-benzoylphenyl) N-methyl 2-(3-pyridinyl)-4-thiazolidinecarboxamide dihydrochloride]
- Ki: 620 nM

SMILES: COc1cc(C(=O)c2cccc(N(C)C(=O)C3CSC(c4cccnc4)S3)c2)cc(OC)c1OC (stereo not drawn) [Example 16, N-[3-(3,4,5-trimethoxybenzoyl)phenyl] N-methyl 2-(3-pyridinyl)-4-dithiolanecarboxamide hydrochloride]
- Ki: 2600 nM

SMILES: O=C(Nc1cccc(C(=O)c2ccccc2)c1)NC1CSC(c2cccnc2)S1 (stereo not drawn) [Example 17a, N-(3-benzoylphenyl) N'-[2-(3-pyridinyl)dithiolan-4-yl] urea]
- Ki: 1300 nM

SMILES: O=C(Nc1cccc(C(=O)c2ccccc2)c1)NC1CSC(c2cccnc2)S1 (stereo not drawn) [Example 17b, N-(3-benzoylphenyl) N'-[2-(3-pyridinyl)dithiolan-4-yl] urea]
- Ki: 260 nM

SMILES: COc1cc(C(=O)c2cccc(NC(=O)NC3CSC(c4cccnc4)S3)c2)cc(OC)c1OC (stereo not drawn) [Example 18a, N-[3-(3,4,5-trimethoxybenzoyl)phenyl] N'-[2-(3-pyridinyl)dithiolan-4-yl] urea]
- Ki: 650 nM

SMILES: COc1cc(C(=O)c2cccc(NC(=O)NC3CSC(c4cccnc4)S3)c2)cc(OC)c1OC (stereo not drawn) [Example 18b, N-[3-(3,4,5-trimethoxybenzoyl)phenyl] N'-[2-(3-pyridinyl)dithiolan-4-yl] urea]
- Ki: 35 nM

SMILES: CN(C(=O)NC1CSC(c2cccnc2)S1)c1cccc(C(=O)c2ccccc2)c1 (stereo not drawn) [Example 19a, N-methyl-N-(3-benzoylphenyl) N'-[2-(3-pyridinyl)dithiolan-4-yl] urea]
- Ki: 2900 nM

SMILES: CN(C(=O)NC1CSC(c2cccnc2)S1)c1cccc(C(=O)c2ccccc2)c1 (stereo not drawn) [Example 19b, N-methyl-N-(3-benzoylphenyl) N'-[2-(3-pyridinyl)dithiolan-4-yl] urea]
- Ki: 7000 nM

SMILES: COc1cc(C(=O)c2cccc(N(C)C(=O)NC3CSC(c4cccnc4)S3)c2)cc(OC)c1OC (stereo not drawn) [Example 20a, N-methyl-N-[3-(3,4,5-trimethoxybenzoyl)phenyl] N'-[2-(3-pyridinyl)dithiolan-4-yl] urea]
- Ki: 260 nM

SMILES: COc1cc(C(=O)c2cccc(N(C)C(=O)NC3CSC(c4cccnc4)S3)c2)cc(OC)c1OC (stereo not drawn) [Example 20b, N-methyl-N-[3-(3,4,5-trimethoxybenzoyl)phenyl] N'-[2-(3-pyridinyl)dithiolan-4-yl] urea]
- Ki: 2200 nM

SMILES: O=C(c1ccccc1)c1cccc(NC(=O)C2CCC(c3cccnc3)N2)c1 (stereo not drawn) [Example 21, N-(3-benzoylphenyl)-2-(3-pyridyl)-5-pyrrolidinecarboxamide]
- Ki: 780 nM
